Measured values reported in patent US10906913B2, “NMDA receptor modulators and uses thereof” (Northwestern University, priority 2008, dated 2021).
“Also recorded” adds a separate entry of the source. Like-named read-outs stand apart in the source and are kept apart here. Each block holds one molecule with its values, some of them ahead of it. Peptide text beside a SMILES is read from it.

Columns and labels:
NMDA receptor [1] = molecular target: T1, NMDA receptor (Rattus norvegicus, UniProt P35439); assay: NMDA receptor-gated single neuron conductance (INMDA) in hippocampal CA1 pyramidal neurons; assay type: cell-based; settings: for enhancement of INMDA compared among the tested compounds: comparison of compound B, AK-51, AK-52
T1 construct: NMDA receptor-gated single neuron conductance (INMDA) in hippocampal CAI pyramidal neurons; from tissue; host or cells: in vitro hippocampal slices, CA1 pyramidal neurons
Excerpt: (§1) The effects of the three compounds were examined on 1) NMDA receptor-gated single neuron conductance (INMDA) in hippocampal CAI pyramidal neurons and 2) the magnitude of long-term potentiation (LTP) and long term depression (LTD) at Schaffer collateral CA1 synapses, in in vitro hippocampal slices.

[2] = system: Schaffer collateral-CA1 synapses; assay: Long-term potentiation (LTP) at Schaffer collateral-CA1 synapses, in vitro hippocampal slices; assay type: cell-based; settings: for magnitude of LTP: high frequency stimulus; for magnitude / induction of LTP: concentration not given
Excerpt: as §1

[3] = system: Schaffer collateral-CA1 synapses; assay: Long term depression (LTD) at Schaffer collateral-CA1 synapses, in vitro hippocampal slices; assay type: cell-based; settings: 1 μM; low frequency stimulus 2 Hz/10 min
Excerpt: as §1

rats = assay: Alternating T-maze learning task; assay type: in vivo, rat; settings: 60 min before testing
Description: Male 3 month old Fisher 344 X Brown Norway F1 cross rats (FBNF1) were used for this study. The t-maze was constructed with arms (45 cm long×10 cm wide×10 cm high) made of black Plexiglas enclosing the maze. Two plastic bottle caps, lined with wire mesh, were secured to the end of each goal arm in which the food reward (Cheerios, 100 mg/piece) was placed. Before the start of training, animals were gradually deprived of food to approximately 85% of their free feeding weight. On three successive days before the start of training, animals were habituated to the t-maze with food located throughout the maze. […] On the subsequent testing day, animals were given injections of AK51 (0.3, 1, 3, 10, 30 mg/kg p.o.), or DMSO vehicle (1 mg/ml; Sigma, Saint Louis Mo.) in a blind manner via gastric gavage (4″, 16-ga; Braintree Scientific, Braintree Mass.) 60 min prior to the start of testing (n=8-9 per group. On the first trial of testing, both arms were baited with food and for the subsequent 20 trials only alternating choices (opposite of the animal's previous choice) were rewarded (˜30 sec inter-trial interval). The number of trials to criterion (5 consecutive correct choices) was calculated for each animal. Data was analyzed by ANOVA followed by Fisher PLSD post hoc tests comparing individual drug doses to vehicle (α=0.05). […]

Glutamate, AMPA = assay: Binding assay, Glutamate, AMPA; parameters: species or system rat; settings: 10 μM
Excerpt: (§2) Table B depicts the results of binding assays against various targets with AK51: […]

Glutamate, Kainate = assay: Binding assay, Glutamate, Kainate; parameters: species or system rat; settings: 10 μM
Excerpt: as §2

[4] = molecular target: Glutamate, Metabotropic, mGlus (Homo sapiens, UniProt P41594); assay: Binding assay, Glutamate, Metabotropic, mGlus
Sequence of Glutamate, Metabotropic, mGlus (P41594 21-1212): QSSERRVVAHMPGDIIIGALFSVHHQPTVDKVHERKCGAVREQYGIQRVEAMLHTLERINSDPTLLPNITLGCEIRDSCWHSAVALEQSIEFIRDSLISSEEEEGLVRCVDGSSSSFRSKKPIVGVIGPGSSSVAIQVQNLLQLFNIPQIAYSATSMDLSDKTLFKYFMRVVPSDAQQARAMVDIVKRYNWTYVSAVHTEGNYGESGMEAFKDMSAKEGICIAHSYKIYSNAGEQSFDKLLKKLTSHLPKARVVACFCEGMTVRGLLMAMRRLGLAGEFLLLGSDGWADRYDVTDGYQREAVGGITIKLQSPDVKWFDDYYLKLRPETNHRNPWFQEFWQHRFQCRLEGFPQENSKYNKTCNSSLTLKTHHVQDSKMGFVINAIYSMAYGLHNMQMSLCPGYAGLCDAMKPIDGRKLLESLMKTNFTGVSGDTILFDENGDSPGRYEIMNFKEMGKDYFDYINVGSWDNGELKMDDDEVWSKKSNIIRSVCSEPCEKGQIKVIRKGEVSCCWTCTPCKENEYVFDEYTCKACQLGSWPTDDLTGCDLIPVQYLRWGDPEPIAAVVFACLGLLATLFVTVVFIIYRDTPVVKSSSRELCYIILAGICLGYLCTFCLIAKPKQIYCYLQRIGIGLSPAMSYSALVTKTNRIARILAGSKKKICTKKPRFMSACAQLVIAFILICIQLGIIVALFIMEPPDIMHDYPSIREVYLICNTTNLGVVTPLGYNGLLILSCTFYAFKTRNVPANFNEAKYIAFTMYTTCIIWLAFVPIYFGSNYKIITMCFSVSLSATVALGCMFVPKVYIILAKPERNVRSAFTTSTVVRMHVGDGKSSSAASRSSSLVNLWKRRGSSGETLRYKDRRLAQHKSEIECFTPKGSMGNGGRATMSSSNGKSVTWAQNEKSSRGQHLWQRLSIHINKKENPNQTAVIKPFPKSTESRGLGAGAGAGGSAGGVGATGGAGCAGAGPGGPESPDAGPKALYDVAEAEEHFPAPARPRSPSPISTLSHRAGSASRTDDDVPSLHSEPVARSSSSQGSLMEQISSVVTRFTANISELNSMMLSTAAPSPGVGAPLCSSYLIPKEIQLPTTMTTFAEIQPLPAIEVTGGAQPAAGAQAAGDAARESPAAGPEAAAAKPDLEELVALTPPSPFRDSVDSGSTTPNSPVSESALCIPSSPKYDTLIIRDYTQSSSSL
Excerpt: as §2

Glutamate, NMDA, Agonism = assay: Binding assay, Glutamate, NMDA, Agonism; parameters: species or system rat; settings: 10 μM
Excerpt: as §2

Glutamate, NMDA, Glycine = Glutamate, NMDA, Glycine (Rattus norvegicus, UniProt P35439); assay: Binding assay, Glutamate, NMDA, Glycine
Excerpt: as §2

[5] = molecular target: Glutamate, NMDA, Phencyclidine (Rattus norvegicus, UniProt P35439); assay: Binding assay, Glutamate, NMDA, Phencyclidine
Excerpt: as §2

[6] = molecular target: Glutamate, NMDA, Polyamine (Rattus norvegicus, UniProt P35439+Q00960); assay: Binding assay, Glutamate, NMDA, Polyamine
Sequence of Glutamate, NMDA, Polyamine (Q00960 27-1482, other chains not shown): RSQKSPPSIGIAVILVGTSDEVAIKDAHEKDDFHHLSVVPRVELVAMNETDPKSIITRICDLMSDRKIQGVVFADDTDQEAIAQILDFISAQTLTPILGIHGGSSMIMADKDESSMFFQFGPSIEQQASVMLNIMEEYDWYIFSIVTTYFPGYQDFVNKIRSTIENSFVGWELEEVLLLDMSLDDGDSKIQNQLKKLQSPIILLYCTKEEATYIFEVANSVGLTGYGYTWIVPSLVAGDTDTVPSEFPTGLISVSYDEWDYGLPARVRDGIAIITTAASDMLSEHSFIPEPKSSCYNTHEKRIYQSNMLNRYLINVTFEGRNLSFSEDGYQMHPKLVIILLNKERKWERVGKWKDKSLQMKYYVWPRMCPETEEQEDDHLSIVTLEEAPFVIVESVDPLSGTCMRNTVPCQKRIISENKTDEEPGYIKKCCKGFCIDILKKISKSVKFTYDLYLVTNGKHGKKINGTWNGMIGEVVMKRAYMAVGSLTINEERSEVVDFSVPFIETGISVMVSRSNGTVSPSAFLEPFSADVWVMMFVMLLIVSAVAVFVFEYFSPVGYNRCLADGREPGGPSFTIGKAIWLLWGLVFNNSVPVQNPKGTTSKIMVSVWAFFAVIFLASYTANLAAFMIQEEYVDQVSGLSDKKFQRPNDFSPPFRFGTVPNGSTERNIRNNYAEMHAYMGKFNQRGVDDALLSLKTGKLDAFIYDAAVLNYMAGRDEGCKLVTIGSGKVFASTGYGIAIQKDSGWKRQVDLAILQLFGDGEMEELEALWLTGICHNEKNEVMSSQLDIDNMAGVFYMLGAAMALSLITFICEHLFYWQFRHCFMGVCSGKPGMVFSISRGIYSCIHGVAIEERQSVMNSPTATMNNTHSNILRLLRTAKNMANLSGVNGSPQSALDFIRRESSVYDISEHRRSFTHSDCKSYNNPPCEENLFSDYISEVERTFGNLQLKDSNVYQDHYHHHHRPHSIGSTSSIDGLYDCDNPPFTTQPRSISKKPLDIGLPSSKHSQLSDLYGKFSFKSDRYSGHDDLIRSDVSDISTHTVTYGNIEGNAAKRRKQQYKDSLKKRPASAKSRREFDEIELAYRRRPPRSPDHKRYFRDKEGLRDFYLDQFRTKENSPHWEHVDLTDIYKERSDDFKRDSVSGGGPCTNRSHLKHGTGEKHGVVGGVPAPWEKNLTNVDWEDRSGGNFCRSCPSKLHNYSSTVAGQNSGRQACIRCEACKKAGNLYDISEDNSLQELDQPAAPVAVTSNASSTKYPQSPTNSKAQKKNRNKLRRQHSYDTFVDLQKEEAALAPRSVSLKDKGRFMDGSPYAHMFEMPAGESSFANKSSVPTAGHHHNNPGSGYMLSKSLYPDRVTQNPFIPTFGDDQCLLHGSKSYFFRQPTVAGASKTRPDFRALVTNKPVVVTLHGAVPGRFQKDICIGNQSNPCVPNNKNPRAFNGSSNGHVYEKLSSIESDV
Excerpt: as §2

Glutamate, Non-Selective = assay: Binding assay, Glutamate, Non-Selective; parameters: species or system rat; settings: 10 μM
Excerpt: as §2

[7] = system: Glycine, Strychnine-Sensitive; assay: Binding assay, Glycine, Strychnine-Sensitive; parameters: species or system rat; settings: 10 μM
Excerpt: as §2

NMDA receptor [8] = molecular target: T1, NMDA receptor; settings: cited from earlier work
[9] = system: Schaffer collateral-CA1 synapses; settings: cited from earlier work
[10] = system: Schaffer collateral-CA1 synapses; settings: cited from earlier work; remark: listed apart in the source

NMDA current (normalized pharmacologically-isolated NMDA receptor-gated current) (NMDA receptor [1]; 100 nM and 1 μM, 20 min bath application, whole-cell recording): enhances
single shock evoked INMDA (NMDA receptor [1]; 1 μM): enhancement
single shock evoked INMDA (NMDA receptor [1]; 1 μM, listed as NRX-10,051): enhanced
% Inhibition (Glutamate, AMPA): −8%
% Inhibition (Glutamate, Kainate): −13%
inhibition at 10 µM [4]: -7%
% Inhibition (Glutamate, NMDA, Agonism): 27%
inhibition at 10 µM (Glutamate, NMDA, Glycine): -6%
inhibition at 10 µM [5]: -5%
inhibition at 10 µM [6]: -14%
% Inhibition (Glutamate, Non-Selective): −10%
% Inhibition [7]: 4%
Compound: O=C1NCC12CCCN2 (stereo not drawn) [AK-51]
single shock evoked INMDA (NMDA receptor [1]; 100 nM, listed as NRX-10,051): enhanced; also recorded: marked enhancement
enhancement of INMDA compared among the tested compounds (NMDA receptor [1]): less potency than compound B; also recorded: smaller in magnitude
magnitude of LTP ([2]; 100 nM): Enhancement
magnitude of LTP ([2]; 1 μM, listed as AK5151): Enhancement
magnitude of LTP ([2]; 1 μM, listed as NRX-10,051): doubled the magnitude
magnitude / induction of LTP [2]: enhances
LTD [3]: not altering
learning behavior in the T-maze test (rats; 1.0 mg/kg by mouth, P<0.001): statistically significant enhancement
learning behavior in the T-maze test (rats; 3.0 mg/kg by mouth, P<0.01): statistically significant enhancement

single shock evoked INMDA (NMDA receptor [1]; 100 nM): mild enhancement
single shock evoked INMDA (NMDA receptor [1]; 100 nM, listed as AK52): enhancement
single shock evoked INMDA (NMDA receptor [1]; 1 μM): significant reduction
single shock evoked INMDA (NMDA receptor [1]; 1 μM, listed as AK52): marked reduction
enhancement of INMDA compared among the tested compounds (NMDA receptor [1]): weakest enhancer
Compound: CC(O)C(NC(=O)OCc1ccccc1)C(=O)N1CC2(CCCN2C(=O)OCc2ccccc2)C1=O (stereo not drawn) [AK-52]
magnitude of LTP ([2]; 100 nM): enhancement
magnitude of LTP ([2]; 1 μM): slight, but significant, reduction
magnitude / induction of LTP [2]: selectively enhances
LTD [3]: without altering; also recorded: did not affect

Compound: C[C@@H](O)[C@H](N)C(=O)N1CCC[C@H]1C(=O)N1CCC[C@H]1C(=O)N[C@H](C(N)=O)[C@@H](C)O [GLYX-13] (H-TPPT-NH2)
burst INMDA (NMDA receptor [8]; 100 μM): reducing
burst-activated INMDA (NMDA receptor [8]; 1-10 μM): enhancement
single pulse evoked INMDA (NMDA receptor [8]; 1-10 μM): reducing
INMDA mediated by NMDA receptors containing NR2A/B subunits (NMDA receptor [8]): selectively enhance
LTP ([9]; 100 μM): reducing
LTP ([9]; 1-10 μM): enhancement
simultaneous effect on LTP and LTD [9]: simultaneously increase LTP and reduce LTD
LTD ([10]; 100 μM): no longer affected
LTD ([10]; 1-10 μM): reducing
